Data: patent publication US20150299155A1, “Sesquiterpene lactone-based pharmaceutical composition for treating gastrointestinal diseases” (CHO DANG PHARM. CO., LTD., priority 2012, published 2015)
Marks after values point to notes of the source that are not given here.

Assays:
[1] = test system: HCl-Ethanol inducing gastritis model; test: HCl-Ethanol inducing gastritis model; type: in vivo, white rats; conditions: for anti-gastritis efficacy: all administration groups
Protocol: After white rats have been fasted for 24 hours, CD-101, CD-102 and CD-103 compound have been orally administered according to method disclosed in Mizui et al., Jap. J. Pharmacol. 33: pp. 939-945 (1983). After 1 hour, 1.5 ml of 60% ethanol including 150 mM HCl has been orally administered to each animal. 1 hour later, animals have been sacrificed by cervical dislocation. After removing the stomach, the stomach has been fixed by injection of 13 ml of 2% formalin for 1 hour. After fixed stomach has been spread out, the lesion area has been measured using the photo by digital camera. Computer program Image J 1.38 (NIH, Bethesda, Md.) has been applied for measuring gastric lesion area (mm^2) The lesion inhibition rate has been calculated according to following equation. Further, 50% effective dose (ED50) has been also calculated using regression analysis.
Lesion inhibition rate(%)={gastric lesion area of control group(mm^2)−gastric lesion area of drug administration group(mm^2)}/gastric lesion area of control group(mm^2)×100

[2] = test system: indomethacin inducing stomach ulcer model; test: Indomethacin inducing stomach ulcer model; type: in vivo, white rats; conditions: oral; for anti-stomach ulcer efficacy: all administration groups
Protocol: After white rats have been fasted for 24 hours, CD-101, CD-102 and CD-103 compound have been orally administered according to method disclosed in Yamasaki et al., Jap. J. Pharmacol. 49: pp. 441-448 (1989). After 1 hour, indomethacin (50 mg/kg) has been orally administered to each animal After fasting for 5 hours, animals have been sacrificed by cervical dislocation. After removing the stomach, the stomach has been fixed by injection of 13 ml of 2% formalin for 1 hour. After fixed stomach has been spread out, the lesion area has been measured using the photo by digital camera. Computer program Image J 1.38 (NIH, Bethesda, Md.) has been applied for measuring gastric lesion area (mm^2) The lesion inhibition rate and 50% effective dose (ED50) have been calculated as the same manner of HCl-EtOH model.

[3] = test system: Chinese hamster lung (CHL) cell; test: Chromosomal aberration test using Chinese hamster lung (CHL) cell; type: cell-based; conditions: for induction of chromosomal aberration: CHL cell, overall conclusion
Excerpt: For measuring the induction of chromosomal aberration, the chromosomal aberration test has been carried out using Chinese hamster lung (CHL) cell. 2 kinds of methods have been adopted, such as, metabolic activation method (+S9) using metabolic activation system and direct method (−S9) without metabolic activation system.
For determining the test material reacting concentration, the cell growth inhibition test has been carried out. The test material has been dissolved and diluted in dimethyl sulfoxide (DMSO). Regardless of metabolic activation system, 12 concentration steps (2.43, 4.87, 9.75, 19.5, 39.1, 78.1, 156.3, 312.5, 625, 1250, 2500, 5000 μg/ml) of test material have been prepared. The cells have been cultured for 24 hours as the same way of main test. […] The medium has been further cultured for 18 hours.
Based upon the data of cell growth inhibition test, maximum concentration has been determined when the cell growth has been inhibited up to 50% as the relative cell numbers.
Regardless of metabolic activation system, the test materials have been prepared after 24 hours from the initiation of test. Then, the number of chromosomal aberration has been counted.

Row | Compound | anti-gastritis efficacy ([1]; oral) | Lesion inhibition rate ([1]; oral, dose 1 mg/kg) | Lesion inhibition rate ([1]; oral, dose 3 mg/kg) | Lesion inhibition rate ([1]; oral, dose 10 mg/kg) | anti-stomach ulcer efficacy [2] | Lesion inhibition rate ([2]; dose 1 mg/kg) | Lesion inhibition rate ([2]; dose 3 mg/kg) | Lesion inhibition rate ([2]; dose 10 mg/kg) | Chromosomal aberration test Results ([3]; +S9, dose 10 μg/kg) | induction of chromosomal aberration [3] | Chromosomal aberration test Results ([3]; −S9, dose 2.5 μg/ml) | Chromosomal aberration test Result ([3]; Table 5, +S9, dose not stated) | Chromosomal aberration test Result ([3]; Table 5, −S9, dose not given) | further results
1 | CC1=C2C3OC(=O)[C@@H](C)[C@@H]3CC[C@@]2(C)C=CC1=O (stereo partly drawn) | – | – | – | – | – | – | – | – | – | – | – | – | – | Lesion inhibition rate ([1]; Table 2, ineffective compounds, dose not stated): no effect
2 | C=C1C(=O)O[C@@H]2[C@@H](O)[C@]3(C)CC[C@H]3[C@](C)(OC)CC[C@@H]12 [CD-101] | dose dependent manner | 42.3% | 74.7% | 91.8% | dose dependent manner | 26.9% | 56.6% | 73.1% | negative | do not induce the chromosomal aberration | negative | – | – | Chromosomal aberration test Results ([3]; +S9, dose 20 μg/kg): negative; Chromosomal aberration test Results ([3]; +S9, dose 40 μg/kg): negative; Chromosomal aberration test Results ([3]; −S9, dose 5 μg/kg): negative; Chromosomal aberration test Results ([3]; −S9, dose 10 μg/kg): negative
3 | C=C1C(=O)O[C@@H]2[C@@H]3[C@@H](CC[C@@]3(C)O)C(=C)CC[C@@H]12 [CD-102] | dose dependent manner | 43.0% | 70.4% | 94.9% | dose dependent manner | 41.6% | 56.1% | 77.2% | negative | do not induce the chromosomal aberration | negative | – | – | ED50 ([1]; Rattus norvegicus, oral, regression analysis of lesion inhibition, read-out: 50% effective dose (ED50)): 1.31 mg/kg; Gastric lesion area ([1]; oral, dose 1 mg/kg): 133.5 ± 21.0* mm^2; Gastric lesion area ([1]; oral, dose 3 mg/kg): 69.4 ± 18.4* mm^2; Gastric lesion area ([1]; oral, dose 10 mg/kg): 11.9 ± 10.0* mm^2; ED50 ([2]; Rattus norvegicus, regression analysis of lesion inhibition, read-out: 50% effective dose (ED50)): 1.82 mg/kg; Gastric lesion area ([2]; dose 1 mg/kg): 35.0 ± 5.2 mm^2; Gastric lesion area ([2]; dose 3 mg/kg): 26.3 ± 6.8* mm^2; Gastric lesion area ([2]; dose 10 mg/kg): 13.6 ± 2.9* mm^2; Chromosomal aberration test Results ([3]; +S9, dose 5 μg/kg): negative; Chromosomal aberration test Results ([3]; +S9, dose 20 μg/kg): negative; Chromosomal aberration test Results ([3]; −S9, dose 1.25 μg/kg): negative; Chromosomal aberration test Results ([3]; −S9, dose 5 μg/kg): negative
4 | C=C1C(=O)O[C@@H]2[C@@H]3[C@@H](CC[C@@]3(C)O)[C@](C)(OC)CC[C@@H]12 [CD-103] | dose dependent manner | 56.9% | 66.9% | 99.5% | dose dependent manner | 37.9% | 57.3% | 74.0% | negative | do not induce the chromosomal aberration | negative | – | – | Lesion inhibition rate ([1]; oral, dose 30 mg/kg): 99.5%; 50% effective dose (ED50) ([1]; oral, regression analysis of lesion inhibition): 2.55 mg/kg; 50% effective dose (ED50) ([2]; regression analysis of lesion inhibition): 2.06 mg/kg; Chromosomal aberration test Results ([3]; +S9, dose 2.5 μg/ml): negative; Chromosomal aberration test Results ([3]; +S9, dose 5 μg/kg): negative; Chromosomal aberration test Results ([3]; −S9, dose 0.625 μg/kg): negative; Chromosomal aberration test Results ([3]; −S9, dose 1.25 μg/kg): negative
5 | CO[C@@]12[C@H](COC(N)=O)C3=C(C(=O)C(C)=C(N)C3=O)N1C[C@@H]1N[C@@H]12 [Mitomycin C, reference compound] | – | – | – | – | – | – | – | – | – | – | – | – | – | Chromosomal aberration test Results ([3]; −S9, dose 0.5 μg/kg): positive
6 | O=C(NC(Cc1cc(=O)[nH]c2ccccc12)C(=O)O)c1ccc(Cl)cc1 (stereo not drawn) [Rebamipide, reference compound] | – | – | – | – | – | – | – | – | – | – | – | – | – | Lesion inhibition rate ([1]; oral, dose 50 mg/kg): 30%; Lesion inhibition rate ([2]; dose 50 mg/kg): 49.6%
7 | C=C1C(=O)O[C@@H]2/C=C(\C)CC/C=C(\C)C[C@@H](OC(C)=O)C12 (stereo partly drawn) [reference compound] | – | – | – | – | – | – | – | – | – | – | – | positive positive | positive positive | –
8 | C=C1C(=O)O[C@@H]2/C=C(\C)CCC(O)C(C)(O)C[C@@H](OC(C)=O)C12 (stereo partly drawn) [reference compound] | – | – | – | – | – | – | – | – | – | – | – | positive positive | positive positive | –
9 | CC(=O)O[C@@H]1/C=C(\C)CCC/C(C)=C/[C@H]2OC(=O)[C@H](CN(C)C)C12 (stereo partly drawn) [reference compound] | – | – | – | – | – | – | – | – | – | – | – | positive positive | positive positive | –
